The results in this text go back to patent publication US20220104493A1, “HERBICIDAL COMPOUNDS” (SYNGENTA CROP PROTECTION AG, priority 2019, published 2022).

Common to all, as to experiment: Post-emergence efficacy, Method A
Common to all, as to type: in vivo

In one experiment the test system is Setaria faberi (SETFA). To be noted: 100=total damage to plant, 0=no damage, evaluated after 7 and 14 days, read-out: Control of weed species after post-emergence application, SETFA.
Experiment [1] relates to Euphorbia heterophylla (EPHHL). Conditions: 100=total damage to plant, 0=no damage, evaluated after 7 and 14 days, read-out: Control of weed species after post-emergence application, EPHHL.
For experiment [2], the system named is Chenopodium album (CHEAL). To be noted: 100=total damage to plant, 0=no damage, evaluated after 7 and 14 days, read-out: Control of weed species after post-emergence application, CHEAL.
The test system of experiment [3] is Digitaria sanguinalis (DIGSA). Conditions: 100=total damage to plant, 0=no damage, evaluated after 7 and 14 days, read-out: Control of weed species after post-emergence application, DIGSA.
Another experiment concerns Eleusine indica (ELEIN). To be noted: 100=total damage to plant, 0=no damage, evaluated after 7 and 14 days, read-out: Control of weed species after post-emergence application, ELEIN.
Another experiment deals with Lolium perenne (LOLPE). To be noted: 100=total damage to plant, 0=no damage, evaluated after 7 and 14 days, read-out: Control of weed species after post-emergence application, LOLPE.
The test system of experiment [4] is Echinochloa crus-galli (ECHCG). Conditions: 100=total damage to plant, 0=no damage, evaluated after 7 and 14 days, read-out: Control of weed species after post-emergence application, ECHCG.
The subject of experiment [5] is Ipomoea hederacea (IPOHE). Conditions: 100=total damage to plant, 0=no damage, evaluated after 7 and 14 days, read-out: Control of weed species after post-emergence application, IPOHE.
Experiment [6] relates to Amaranthus palmeri (AMAPA). Conditions: 100=total damage to plant, 0=no damage, evaluated after 7 and 14 days, read-out: Control of weed species after post-emergence application, AMAPA.

`O=C(O)C[n+]1ccc(-c2ncns2)cc1` [Compound A6]: the pest or weed control at 500 g/ha in the experiment on Setaria faberi (SETFA) came to 80%; in experiment [1] it was 100%; in experiment [2], 100%; in [3], 70%; in the experiment on Eleusine indica (ELEIN), 90%; in the experiment with Lolium perenne (LOLPE), 30%. The pest or weed control at 500 g/ha in experiment [4] turned out to be 90%; in experiment [5], 80%; in [6], 100%.
`O=C(O)CC[n+]1ccc(-c2ncns2)cc1` [Compound A7, 3-[4-(1,2,4-thiadiazol-5-yl)pyridin-1-ium-1-yl]propanoic acid chloride]: the pest or weed control at 500 g/ha in the experiment with Setaria faberi (SETFA) amounted to 70%; in experiment [1] it was 80%; in experiment [2] it was 90%; in experiment [3], 90%; in the experiment with Eleusine indica (ELEIN), 70%; with Lolium perenne (LOLPE), 30%. The figures for the pest or weed control at 500 g/ha in experiment [4], in experiment [5] and in experiment [6] were 50%, 30% and 100%, respectively.
For the compound `O=S(=O)([O-])CCC[n+]1ccc(-c2cnsn2)cc1` [Compound A12], the pest or weed control at 1000 g/ha in the experiment on Setaria faberi (SETFA) (1000 g/Ha) was 0%; in experiment [1] (1000 g/Ha), 20%; in experiment [2] (1000 g/Ha), 0%; in experiment [3] (1000 g/Ha), 20%; in the experiment on Eleusine indica (ELEIN) (1000 g/Ha), 20%; in the experiment with Lolium perenne (LOLPE) (1000 g/Ha) it was 10%. Further, the pest or weed control at 1000 g/ha in experiment [4] (1000 g/Ha), in [5] (1000 g/Ha) and in [6] (1000 g/Ha) was 0% throughout.
Consider `O=C(O)C[n+]1ccc(-c2ncno2)cc1` [Compound A13], for which the pest or weed control at 500 g/ha in the experiment on Setaria faberi (SETFA) was found to be 70%; in experiment [1], 70%; in experiment [2] it was 50%; in [3], 60%; with Eleusine indica (ELEIN) it was 50%; with Lolium perenne (LOLPE), 10%. The values for the pest or weed control at 500 g/ha in experiment [4], in [5] and in experiment [6] were 50%, 30% and 100%, respectively.
As to `O=C(O)CC[n+]1ccc(-c2ncno2)cc1` [Compound A14], the pest or weed control at 500 g/ha with Setaria faberi (SETFA) stood at 60%; in [1], 30%; in [2], 70%; in [3], 50%; with Eleusine indica (ELEIN), 40%; in the experiment on Lolium perenne (LOLPE), 10%. In addition, the pest or weed control at 500 g/ha worked out at 50% in experiment [4], 20% in experiment [5] and 100% in experiment [6].
With `COC(=O)C[n+]1ccc(-c2nnco2)cc1` [Compound A16], the pest or weed control at 500 g/ha with Setaria faberi (SETFA) was found to be 30%; in experiment [1], 20%; in [2] it was 0%; in experiment [3], 40%; in the experiment with Eleusine indica (ELEIN), 10%; with Lolium perenne (LOLPE), 0%. The results for the pest or weed control at 500 g/ha in experiment [4], in [5] and in [6] were 20%, 20% and 0%, respectively.
As to `O=S(=O)([O-])CCC[n+]1ccc(-c2nnco2)cc1` [Compound A17], the pest or weed control at 500 g/ha with Setaria faberi (SETFA) came out at 40%; in experiment [1], 50%; in experiment [2], 70%; in experiment [3] it was 40%; in the experiment on Eleusine indica (ELEIN), 10%; with Lolium perenne (LOLPE) it was 0%. In addition, the pest or weed control at 500 g/ha in experiment [4] came to 30%; in experiment [5] it was 20%; in experiment [6] it was 70%.
For `O=S(=O)([O-])CCC[n+]1ccc(-c2cnon2)cc1` [Compound A18], the pest or weed control at 500 g/ha turned out to be 40% in the experiment with Setaria faberi (SETFA); 50% in experiment [1]; 50% in experiment [2]; 30% in experiment [3]; 30% in the experiment with Eleusine indica (ELEIN); 10% with Lolium perenne (LOLPE). The pest or weed control at 500 g/ha in [4] was determined as 50%; in experiment [5], 20%; in experiment [6], 100%.
On to `O=S(=O)([O-])CC[n+]1ccc(-c2cnns2)cc1` [Compound A19], for which the pest or weed control at 500 g/ha in the experiment with Setaria faberi (SETFA) is 40%; in [1], 50%; in experiment [2], 50%; in [3], 30%; in the experiment with Eleusine indica (ELEIN), 30%; in the experiment with Lolium perenne (LOLPE), 30%. The pest or weed control at 500 g/ha in [4] was determined as 40%; in experiment [5], 50%; in experiment [6], 100%.
With `O=C(O)C[n+]1ccc(-c2nccs2)cc1` [Compound A24], the pest or weed control at 500 g/ha is 0% with Setaria faberi (SETFA); 40% in [1]; 40% in [2]; 10% in experiment [3]; 0% in the experiment on Eleusine indica (ELEIN); 0% in the experiment on Lolium perenne (LOLPE). Further, the values for the pest or weed control at 500 g/ha in [4], in experiment [5] and in [6] were 0%, 20% and 0%, respectively.
Consider `O=C(O)CC[n+]1ccc(-c2nccs2)cc1` [Compound A25], for which the pest or weed control at 500 g/ha in the experiment on Setaria faberi (SETFA) was found to be 0%; in experiment [1] it was 0%; in experiment [2] it was 10%; in [3], 10%; in the experiment on Eleusine indica (ELEIN), 10%; in the experiment with Lolium perenne (LOLPE), 0%. The results for the pest or weed control at 500 g/ha in experiment [4], in [5] and in [6] were 0%, 10% and 0%, respectively.
With `Cn1nnnc1-c1cc[n+](CCS(=O)(=O)[O-])cc1` [Compound A26], the pest or weed control at 500 g/ha worked out at 10% with Setaria faberi (SETFA); 20% in experiment [1]; 10% in experiment [2]; 20% in experiment [3]; 10% with Eleusine indica (ELEIN); 10% with Lolium perenne (LOLPE). Besides, the pest or weed control at 500 g/ha came out at 10% in [4], 10% in experiment [5] and 0% in experiment [6].
With `Cn1nnc(-c2cc[n+](CCS(=O)(=O)[O-])cc2)n1` [Compound A27], the pest or weed control at 500 g/ha worked out at 0% with Setaria faberi (SETFA); 20% in experiment [1]; 10% in experiment [2]; 0% in experiment [3]; 0% in the experiment with Eleusine indica (ELEIN); 0% with Lolium perenne (LOLPE). Moreover, the pest or weed control at 500 g/ha in [4] came out at 0%; in [5], 10%; in experiment [6], 10%.
Regarding `Cn1nnnc1-c1cc[n+](CC(=O)O)cc1` [Compound A33], the pest or weed control at 500 g/ha in the experiment on Setaria faberi (SETFA) stood at 0%; in [1] it was 40%; in experiment [2], 40%; in experiment [3], 20%; with Eleusine indica (ELEIN), 20%; in the experiment with Lolium perenne (LOLPE), 0%. The pest or weed control at 500 g/ha stood at 0% in experiment [4], 0% in experiment [5] and 90% in [6].
